# Source: US20210392882A1, “METHODS AND COMPOSITIONS FOR IMPROVED INSECT REPELLENCY” (Board of Trustees of Michigan State University, priority 2020, published 2021)
# Columns and labels:
# [1] = tested on: sst-1 sensilla (sst-1A and sst-1B neurons); assay: Single sensillum recording (SSR) of antennal sst-1 sensilla; type: cell-based, Aedes aegypti; conditions: wild-type ROCK; pyrethrum at 10^−2
# Procedure: Single sensilla recording was conducted as described in Liu et al. J Insect Physiol 59, 1169-1177 (2013). Female mosquitoes 4 days after eclosion were anaesthetized (2-3 min on ice) and mounted on a microscope slide (76×26 mm). An antenna was fixed using a double-sided tape to a cover slip resting on a small ball of dental wax to facilitate manipulation. The cover slip was placed at an appropriate angle to the mosquito head. Once mounted, the specimen was placed under a microscope (Nikon SMA645, Japan) and the antenna viewed at a high magnification (1000×). Two tungsten microelectrodes were sharpened in 10% KNO2 at 2-10 V. The reference electrode, which was connected to ground, was inserted into the compound eye of the mosquito and the other was connected to the preamplifier (10×, Syntech, Kirchzarten, Germany) and inserted into the shaft of an olfactory sensillum to complete the electrical circuit to extracellularly record olfactory receptor neuron potentials (Den Otter et al., Journal of Insect Physiology 26, 465-472 (1980)). Controlled manipulation of the electrodes was performed using a micromanipulator (Burleigh PCS-6000, CA). The preamplifier was connected to an analog-to-digital signal converter (IDAC-4, Syntech, Germany), which in turn was connected to a computer for signal recording and visualization. The activity of co-located olfactory receptor neurons in each sensillum was assessed based on the differences in spike amplitude. The large spike amplitude was designated as cell A and the olfactory receptor neuron with the small spike amplitude was designated cell B (Ghaninia et al. Eur J Neurosci 26, 1611-1623 (2007)). Signals were recorded for 10 seconds starting 1 second before stimulation, and the action potentials were counted off-line over a 500-ms period before and after stimulation. The spontaneous firing rates observed in the preceding 500 milliseconds (ms) were subtracted from the total spike rates observed during the 500-ms stimulation, and counts were recorded in units of spikes/second.
# Eighteen compounds besides pyrethrum from different chemical classes were selected for functional classification of olfactory sensilla with various morphological shapes (Extended Data FIG. 2). Each compound was diluted in dimethyl sulfoxide (DMSO) to a stock solution with a concentration of 100 μg/μl. Subsequently, a series of 10-fold dilutions were made from each of the stock solutions for each compound tested. For each dilution, a 10 μl portion was dispersed onto a filter paper strip (4×10 mm), which was then inserted into a Pasteur pipette to create the stimulus cartridge. A sample containing the solvent alone served as control. The airflow across the antennae was maintained constant at a 20 ml/second throughout the experiment. Purified and humidified air was delivered to the preparation through a glass tube (10-mm inner diameter) perforated by a small hole 10 cm away from the end of the tube, into which the tip of the Pasteur pipette could be inserted. The stimulus was delivered to the sensilla by inserting the tip of the stimulus cartridge into this hole and diverting a portion of the air stream (0.5 l/min) to flow through the stimulus cartridge for 500 ms using a stimulus controller (Syntech, Germany). The distance between the end of the glass tube and the antennae was ≤1 cm. The number of spikes/second was obtained by averaging the results for each sensillum/compound combination.
# To identify which mosquito olfactory receptor neuron(s) responds to pyrethrum, single sensillum recordings (SSR) were performed of Ae. aegypti antennal olfactory sensilla in response to a panel of odorants (FIG. 2C-2L), most of which are plant-derived mosquito repellents, such as pyrethrum, (±)-citronellal, geranyl acetate and (−)-borneol. Three responsive sst sensilla were identified, sst1-3, and six responsive sbt sensilla, sbt1-6, based on their response profiles to the odorants in the panel (FIG. 2B, 2D-2L).
# [2] = tested on: Ae. aegypti mosquitoes; assay: Hand-in-cage spatial repellency assay; type: in vivo, Aedes aegypti
# From the text: The hand-in-cage assay employed was similar to the hand-in-glove assay described by Boyle et al. (bioRxiv, 060178 (2016)). The setup for the hand-in-cage assay includes a 30 cm×30 cm×30 cm mosquito cage (BioQuip, Rancho Dominguea, Calif.), with a mounted digital camera and a human hand in a modified glove with a screened window. The digital camera (e-con Systems Inc, San Jose, Calif., model: e-CAM51A) for video recording is mounted on the cage top and connected to a laptop computer. A nitrile rubber glove (Ansell Protective Products, Coshoton, Ohio, part number: 37-155) was cut on the back side of the glove to create a window (6 cm×5 cm) (FIG. 1A). A piece of magnetic frame (slightly larger than the dimension of the window) was glued onto the cut window which was used as a base for stacking more magnetic window frames (FIG. 1A; further explained below). One piece of test compound-treated polyester netting (Shason Textile Inc., part number: WS-B532-111, white; slightly larger than the dimension of the window) was placed on this fixed magnetic frame, which was ˜3.0 mm above the glove. The second piece of the netting was untreated and placed ˜6.0 mm above the treated net using a stack of four magnetic frames. The stacked magnetic frames were further secured with a binder clip. The stacking creates sufficient space between the treated net and the untreated net so that mosquitoes that land on the open window were not able to contact treated net, or to contact and pierce skin of a hand in the glove. The hand makes no contact with the treated net.
# The assay was run in a room with humidity between around 50% and temperature between 27° C. to 30° C. Twenty-four hours before an assay, four to nine days-old females (about 40, mated, non-blood fed) were transferred into a mosquito cage. The cage was kept in an incubator where mosquitoes were provided only with water in a cotton ball placed on the top of the cage. Immediately before the assay, one researcher treated pieces of netting with 500 μl test compound dissolved in acetone in a glass Petri dish in an adjacent room. Acetone served a control. After letting acetone evaporate (˜7 min), the researcher assembled and put on a modified glove. In the meantime, a second researcher or a lab assistant transferred the prepared cage from the incubator to a bench in the assay room. Both personnel avoided use of any hand lotions and cosmetic products before an assay and wore white lab coats and gloves during the assay. The hand with the modified glove was introduced into the cage to initiate the assay. Mosquitoes landing on the test window was recorded by the digital camera for five minutes. The number of mosquitoes landing during the second to fifth minutes was counted and recorded. For each cage, solvent (acetone) control was tested first and then followed with a treatment. Data from any cage that gave a low landing number in a control trial were discarded. The time interval of assays between control and treatment was at least 1.5 hours, allowing the mosquitoes to fully recover and residual vapors from experiments to be ventilated out of the room. Percentage repellency was determined for each cage using the following equation:
# Percentage repellency=[1−(cumulative number of mosquitoes landed on the window of treatment/cumulative number of mosquitoes landed on the window of solvent treatment)]×100).
# The spatial repellency of pyrethrum was examined using a hand-in-cage assay (Ogoma et al. PLoS neglected tropical diseases 11, e0005455 (2017)). In this behavioral assay, mosquitoes were attracted to a human hand in a modified glove (FIG. 1A) with a screened window on the back of the glove. The mosquitoes landed on a piece of control mesh secured on the top of the window. Between the control mesh and the hand is another mesh treated with a test compound, with which mosquitoes cannot make direct contact (FIG. 1A).
compound,measurement,setting,value
"CC1(C)C2CCC1(C)C(O)C2 (single isomer, unassigned; (-)) [(−)-borneol]",response of sst-1A neuron,[1],activates
same,"repellency, Orlando vs orco−/−","[2]; 10^−2 dilution, FIG. 4I",Orco-mediated
same,effect of (E)-β-farnesene on repellency of the compound,"[2]; EBF 4 ppm, P-I 1000 ppm, P-II 1000 ppm, (−)-borneol 100 ppm, ROCK, FIG. 4D",No enhancement
